Test results published in patent publication EP4610269A1, “UROKINASE PLASMINOGEN ACTIVATOR SURFACE RECEPTOR (UPAR) LIGANDS FOR DIAGNOSTIC OR THERAPEUTIC USE” (3B Pharmaceuticals GmbH, priority 2024, dated 2025).
Where two headings read alike, the source gives them in different places. Where a SMILES comes first, the peptide text is derived from it. Bridges are numbered along the chain shown (N, C = ends). Side-chain parts run from the residue outwards. [ ]: non-standard residue; d: D form. The star is where a group is joined. GdDOTA = Gd(III) DOTA conjugate, O=C([O-])CN1CCN(CC(=O)[O-])CCN(CC(=O)*)CCN(CC(=O)[O-])CC1.[Gd+3]; DOTA(Lu) = O=C1CN2CCN3CCN(CC(=O)*)CCN(CC2)CC(=O)[O][Lu]([O]1)[O]C(=O)C3; DOTA = O=C(O)CN1CCN(CC(=O)O)CCN(CC(=O)*)CCN(CC(=O)O)CC1; PEG12 = NCCOCCOCCOCCOCCOCCOCCOCCOCCOCCOCCOCCOCCC(=O)O; Hyp = O=C(O)[C@@H]1C[C@@H](O)CN1; hArg = N=C(N)NCCCC[C@H](N)C(=O)O; Pentanoyl(4-Me) = CC(C)CCC(=O)*; Cit = NC(=O)NCCC[C@H](N)C(=O)O; Butoxycarbonyl = CCCCOC(=O)*; Api = NC1(C(=O)O)CCNCC1; Nva = CCC[C@H](N)C(=O)O; Hexanoyl = CCCCCC(=O)*; Pentanoyl = CCCCC(=O)*; AEEA = NCCOCCOCC(=O)O

How the values were obtained:
[1] = target: T1, uPAR-expressing HEC-265 human endometrial adenocarcinoma cells (Homo sapiens, UniProt Q03405); test: Competitive FACS binding assay; settings: pIC50 category of FACS binding
T1 construct: Cell surface uPAR-expressing HEC-265 human endometrial adenocarcinoma cells; host or cells: HEC-265
T1 sequence (Q03405 23-335): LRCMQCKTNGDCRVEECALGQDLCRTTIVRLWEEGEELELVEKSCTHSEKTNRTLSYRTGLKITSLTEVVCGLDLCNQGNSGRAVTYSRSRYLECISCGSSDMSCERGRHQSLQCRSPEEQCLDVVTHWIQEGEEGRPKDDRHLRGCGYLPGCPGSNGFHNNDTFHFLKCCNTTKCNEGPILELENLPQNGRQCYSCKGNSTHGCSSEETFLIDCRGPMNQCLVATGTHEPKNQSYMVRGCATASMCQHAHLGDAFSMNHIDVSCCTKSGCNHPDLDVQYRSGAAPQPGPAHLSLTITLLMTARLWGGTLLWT
Outline: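 HEC-265 cells incubated 1 h at 4 °C with 10 nM biotinylated uPAR peptide tracer plus increasing test compound, then stained with APC-streptavidin on ice. Median APC fluorescence by flow cytometry; 4PL fit gives pIC50.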

human uPAR (uPAR-Fc) = target: T2, human uPAR (uPAR-Fc) (Homo sapiens, UniProt Q03405); test: Surface plasmon resonance (SPR) assay, single cycle kinetics; format: binding; settings: pKD category for uPAR SPR activity assay, uPAR-Fc on Protein A-Chip, 25°C, read-out: pKD CAT (converted)
T2 construct: comprising amino acids Leu23-Arg303 according to UniProt entry Q03405.1; purchased R&D Systems 10378-UK-100
T2 sequence (Q03405 23-303): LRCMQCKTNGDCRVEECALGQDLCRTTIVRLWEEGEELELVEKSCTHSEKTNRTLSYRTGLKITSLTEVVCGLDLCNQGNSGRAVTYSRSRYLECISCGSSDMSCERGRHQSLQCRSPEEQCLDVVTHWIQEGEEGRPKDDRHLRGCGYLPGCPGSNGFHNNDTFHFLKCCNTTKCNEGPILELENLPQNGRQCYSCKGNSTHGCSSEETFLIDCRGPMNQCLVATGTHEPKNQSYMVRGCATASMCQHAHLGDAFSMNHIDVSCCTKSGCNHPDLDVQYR
Outline: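 uPAR-Fc (Leu23-Arg303 extracellular domains, human IgG1 Fc) captured on Protein A chip to ~2000 RU; single-cycle kinetics at 25°C in HEPES running buffer pH 7.4 with 0.1% DMSO. KD from double-referenced sensorgrams fitted to 1:1 Langmuir model, reported as pKD.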

[2] = Plasma stability assay (mouse plasma); format: in vitro ADME; settings: 37°C, LC-MS quantification; for remaining at 6 h, 9.8 µM: mouse plasma (sodium citrate 3.7%), read-out: % intact compound remaining after 6h incubation Mouse plasma; for % intact compound remaining after 6h incubation Mouse plasma: mouse plasma (sodium citrate)
Protocol: In order to determine the stability of selected compounds of the invention in human and mouse plasma, a plasma stability assay was carried out. Such plasma stability assay measures degradation of compounds of the present invention in blood plasma. This is an important characteristic of a compound as compounds, with the exception of pro-drugs, which rapidly degrade in plasma, generally show poor in vivo efficacy. […] The stability is sufficient for the diagnostic, therapeutic and theragnostic use of these compounds according to the present invention.
The plasma stability samples were prepared by spiking 50 µl plasma aliquots (all sodium citrate 3.7%) with 1 µl of a 0.5 mM compound stock solution in DMSO. After vortexing the samples were incubated in a Thermomixer at 37°C for 0 and 6 hours. After incubation the samples were stored on ice until further treatment. All samples were prepared in duplicates.
A suitable internal standard was added to each sample (1 µl of a 0.5 mM stock solution in DMSO). Protein precipitation was performed using two different methods depending on the compound conditions as indicated in Table 13. • A) 250 µl of acetonitrile containing 1% trifluoroacetic acid was added. After incubation at room temperature for 30 min the precipitate was separated by centrifugation and 150 µl of the supernatant was diluted with 150 µl of 1% aqueous formic acid. • B) 150 µl of a zinc sulphate precipitation agent containing 78% 0.1 M zinc sulphate and 22% acetonitrile was added. After incubation at room temperature for 30 min the precipitate was separated by centrifugation. To 100 µl of the supernatant 10 µl of 1% formic acid was added followed by further incubation at 60°C for 10 min to complete the formation of the zinc chelate, if the compound contains a free DOTA moiety.
The determination of the analyte in the clean sample solutions was performed on an Agilent 1290 UHPLC system coupled to an Agilent 6530 Q-TOF mass spectrometer. The chromatographic separation was carried out on a Phenomenex BioZen XB-C18 HPLC column (50 x 2 mm, 1.7 µm particle size).
Two different elution gradients were applied using a mixture of 0.1% formic acid in water as eluent A and acetonitrile as eluent B: • A) 2% B to 41% in 7 min, 800 µl/min, 40°C. • B) 5% B to 50% B in 6 min, 800 µL/min, 40°C.
Mass spectrometric detection was performed in positive ion ESI mode by scanning the mass range from m/z 50 to 3000 with a sampling rate of 2 / sec.
From the mass spectrometric raw data the ion currents for the double or triple charged monoisotopic signal was extracted for both, the compound and the internal standard.
Quantitation was performed by external matrix calibration with internal standard using the integrated analyte signals.
Additionally, recovery was determined by spiking a pure plasma sample that only contained the internal standard after treatment with a certain amount of the compound.
Carry-over was evaluated by analysis of a blank sample (20% acetonitrile) after the highest calibration sample.
The result is stated as "% intact compound remaining after 6 h incubation" and means that from the amount of material at the start of the experiment the stated percentage is detected as unchanged material at the end of the experiment by LC-MS quantification. Since all compounds are more than 50% intact after 6 h they are considered as stable enough for diagnostic and therapeutic applications. Table 13: Results of the plasma stability assay

Row | Compound | IC50 [1] [nM] | Kd (human uPAR (uPAR-Fc)) [nM] | remaining at 6 h, 9.8 µM [2] [%] | Kd (human uPAR (uPAR-Fc); single cycle kinetics) [nM] | pIC50 CAT [1] | % intact compound remaining after 6h incubation Mouse plasma [2] [%]
1 | CC[C@H](C)[C@@H]1NC(=O)[C@@H](C)NC(=O)[C@@H]2CCCN2C(=O)[C@H](Cc2ccccc2)NC(=O)[C@H](Cc2ccc(O)cc2)NC(=O)[C@H](CCCCNC(=O)CN2CCN(CC(=O)O)CCN(CC(=O)O)CCN(CC(=O)O)CC2)NC(=O)[C@H](CCCNC(=N)N)NC(=O)[C@@H](NC(=O)CCC(C)C)CSSC[C@@H](C(N)=O)NC(=O)[C@H](CC(C)C)NC1=O [UPAR-176, iHex-[Cys-Arg-Lys(DOTA)-Tyr-Phe-Pro-ala-Ile-Leu-Cys]-NH2] ({Pentanoyl(4-Me)}-CRK(DOTA)YFP[dA]ILC-NH2; disulfide 1-10) | ≤ 10 | < 1.58 | 57 | – | – | –
2 | CCCCC(=O)N[C@H]1CSSC[C@@H](C(N)=O)NC(=O)[C@H](CCC)NC(=O)[C@H]([C@@H](C)CC)NC(=O)[C@@H]2C[C@@H](O)CN2C(=O)[C@@H]2CCCN2C(=O)[C@H](Cc2ccccc2)NC(=O)[C@H](Cc2ccc(O)cc2)NC(=O)[C@H](CCCCNC(=O)CCOCCOCCOCCOCCOCCOCCOCCOCCOCCOCCOCCOCCNC(=O)CN2CCN(CC(=O)O)CCN(CC(=O)O)CCN(CC(=O)O)CC2)NC(=O)[C@H](CCCNC(N)=O)NC1=O [UPAR-200, Pent-[Cys-Cit-Lys(DOTA-PEG12)-Tyr-Phe-Pro-Hyp-Ile-Nva-Cys]-NHz] (Pentanoyl-C[Cit]K([PEG12-DOTA])YFP[Hyp]I[Nva]C-NH2; disulfide 1-10) | ≤ 10 | < 1.58 | > 95 | – | – | –
3 | CC[C@H](C)[C@@H]1NC(=O)[C@@H](C)NC(=O)[C@@H]2CCCN2C(=O)[C@H](Cc2ccccc2)NC(=O)[C@H](Cc2ccc(O)cc2)NC(=O)[C@H](CCC(N)=O)NC(=O)[C@@H](C)NC(=O)[C@@H](NC(=O)[C@H](CC(C)C)NC(=O)COCCOCCNC(=O)CN2CCN(CC(=O)O)CCN(CC(=O)O)CCN(CC(=O)O)CC2)CSSC[C@@H](C(N)=O)NC(=O)[C@H](CC(C)C)NC1=O [UPAR-216, DOTA-O2Oc-Leu-[Cys-ala-Gln-Tyr-Phe-Pro-ala-Ile-Leu-Cys]-NH2] ({DOTA-AEEA}-LC[dA]QYFP[dA]ILC-NH2; disulfide 2-11) | ≥ 126 | > 100 | 84 | – | – | –
4 | CCCCOC(=O)N[C@H]1CSSC[C@@H](C(N)=O)NC(=O)[C@H](CCC)NC(=O)[C@H]([C@@H](C)CC)NC(=O)[C@@H]2C[C@@H](O)CN2C(=O)[C@@H]2CCCN2C(=O)[C@H](Cc2ccccc2)NC(=O)[C@H](Cc2ccc(O)cc2)NC(=O)[C@H](CCCCNC(=O)CN2CCN(CC(=O)O)CCN(CC(=O)O)CCN(CC(=O)O)CC2)NC(=O)[C@H](CCCNC(N)=O)NC1=O [UPAR-275, Butoc-[Cys-Cit-Lys(DOTA)-Tyr-Phe-Pro-Hyp-Ile-Nva-Cys]-NH2] (Butoxycarbonyl-C[Cit]K(DOTA)YFP[Hyp]I[Nva]C-NH2; disulfide 1-10) | ≤ 10 | < 1.58 | 70 | – | – | –
5 | CCCCC(=O)N[C@H]1CSSC[C@@H](C(N)=O)NC(=O)[C@H](CCC)NC(=O)[C@H]([C@@H](C)CC)NC(=O)[C@@H]2C[C@@H](O)CN2C(=O)[C@@H]2CCCN2C(=O)[C@H](Cc2ccccc2)NC(=O)[C@H](Cc2ccc(O)cc2)NC(=O)[C@H](CCCCNC(=O)CN2CCN(CC(=O)O)CCN(CC(=O)O)CCN(CC(=O)O)CC2)NC(=O)[C@H](CCCCNC(=N)N)NC1=O [UPAR-278, Pent-[Cys-Har-Lys(DOTA)-Tyr-Phe-Pro-Hyp-Ile-Nva-Cys]-NH2] (Pentanoyl-C[hArg]K(DOTA)YFP[Hyp]I[Nva]C-NH2; disulfide 1-10) | ≤ 10 | < 1.58 | 87 | – | – | –
6 | CCCCCC(=O)N[C@@H](CC(=O)O)C(=O)N[C@@H](CC(C)C)C(=O)N[C@H]1CSSC[C@@H](C(N)=O)NC(=O)[C@H](CC(C)C)NC(=O)[C@H]([C@@H](C)CC)NC(=O)[C@H](CCCCNC(=O)CN2CCN(CC(=O)O)CCN(CC(=O)O)CCN(CC(=O)O)CC2)NC(=O)[C@@H]2CCCN2C(=O)[C@H](Cc2ccccc2)NC(=O)[C@H](Cc2ccc(O)cc2)NC(=O)[C@H](CCSC)NC(=O)[C@H](CCCNC(=N)N)NC1=O [UPAR-351, Hex-Asp-Leu-[Cys-Arg-Met-Tyr-Phe-Pro-Lys(DOTA)-Ile-Leu-Cys]-NH2] (Hexanoyl-DLCRMYFPK(DOTA)ILC-NH2; disulfide 3-12) | ≤ 10 | – | > 95 | < 1.58 | – | –
7 | CC[C@H](C)[C@@H]1NC(=O)[C@@H](C)NC(=O)[C@@H]2CCCN2C(=O)[C@H](Cc2ccccc2)NC(=O)[C@H](Cc2ccc(O)cc2)NC(=O)[C@H](CCC(N)=O)NC(=O)[C@H](CCCNC(N)=O)NC(=O)[C@@H](NC(=O)[C@H](CC(C)C)NC(C)=O)CSSC[C@@H](C(N)=O)NC(=O)[C@H](CC(C)C)NC1=O [UPAR-418, Ac-Leu-[Cys-Cit-Gln-Tyr-Phe-Pro-ala-Ile-Leu-Cys]-NH2] (Ac-LC[Cit]QYFP[dA]ILC-NH2; disulfide 2-11) | ≤ 10 | – | 85 | < 1.58 | – | –
8 | CCCCCC(=O)N[C@@H](CC(=O)O)C(=O)N[C@@H](CC(C)C)C(=O)N[C@H]1CSSC[C@@H](C(N)=O)NC(=O)[C@H](CC(C)C)NC(=O)[C@H]([C@@H](C)CC)NC(=O)[C@H](C)NC(=O)[C@@H]2CCCN2C(=O)[C@H](Cc2ccccc2)NC(=O)[C@H](Cc2ccc(O)cc2)NC(=O)[C@H](CCCCNC(=O)CN2CCN(CC(=O)O)CCN(CC(=O)O)CCN(CC(=O)O)CC2)NC(=O)[C@H](CCCNC(=N)N)NC1=O [UPAR-427, Hex-Asp-Leu-[Cys-Arg-Lys(DOTA)-Tyr-Phe-Pro-Ala-Ile-Leu-Cys]-NH2] (Hexanoyl-DLCRK(DOTA)YFPAILC-NH2; disulfide 3-12) | ≤ 10 | – | > 95 | < 1.58 | – | –
9 | iHex-[Cys-Arg-Gln-Tyr-Phe-Pro-Apc(GdDOTA)-Ile-Leu-Cys]-NH2 ({Pentanoyl(4-Me)}-CRQYFP[Api](GdDOTA)ILC-NH2; disulfide 1-10 (inferred); not fully specified) [UPAR-457] | – | – | – | – | A (pIC50 values ≥8.0) | 64
10 | iHex-[Cys-Lys(LuDOTA)-Gln-Tyr-Phe-Pro-ala-Ile-Leu-Cys]-NH2 ({Pentanoyl(4-Me)}-CK(DOTA(Lu))QYFP[dA]ILC-NH2; disulfide 1-10 (inferred); not fully specified) [UPAR-408] | – | – | – | – | A (pIC50 values ≥8.0) | 75
